The compounds below were run against human MC1R (assay: Human MC1R radioligand binding assay ([125I] NDP-MSH)). Settings: Table 6, hMCR binding selectivity.
Description: (§1) Radioligand binding assays were carried out using commercial or in-house prepared hMC1 R, hMC3R and hMC4R membranes and [^125I]
(§2) In-house plasma membranes were prepared from transfected mammalian cells (prepared as in Example 109, using plasmid DNA containing the human MC1 R, MC3R or MC4R gene or other gene of interest in a plasmid vector with a mammalian origin of replication): • Adherent cells were washed with warm Hanks buffered saline solution (HBSS). 1 mL of cold HBSS was added to each flask and the cells were scraped off with a rubber policeman. The scraped cells were added to a 50 mL tube on ice. The plates were then rinsed twice with 5 mL cold HBSS and this was also added to the tube. The cells were centrifuged at 1000 x g for 5 mins in a bench top centrifuge and the supernatant was decanted. The remaining cell pellet was resuspended in 0.25 M sucrose. The cell suspension was centrifuged again as previously and the pellet resuspended in 5 mL of 0.25 M sucrose containing protease inhibitors. The cells were homogenised by a 10 second pulse with an Ika disperser followed by 30 seconds on ice. The homogenisation and ice incubation was repeated three times. The mixture was then centrifuged at 1260 x g for 5 mins. […]

Row | IC50 | Compound
1 | 6660 nM | N=C(N)NCCC[C@@H]1N[C@H](CNC(=O)c2ccc3ccccc3c2)CCN(CC(c2ccccc2)c2ccccc2)C1=O [Compound 105, N-(((3S,5S)-1-(2,2-diphenylethyl)-3-(3-guanidinopropyl)-2-oxo-1,4-diazepan-5-yl)methyl)-2-naphthamide]
2 | 2850 nM | O=C(/C=C/c1ccc(Cl)cc1)NC[C@@H]1CCN(CC(c2ccccc2)c2ccccc2)C(=O)[C@H](CCN2CCCCC2)N1 [Compound 33, (E)-3-(4-chlorophenyl)-N-(((3S,5S)-1-(2,2-diphenylethyl)-2-oxo-3-(2-(piperidin-1-yl)ethyl)-1,4-diazepan-5-yl)methyl)acrylamide]

Each compound was assayed against human MC4R (assay: Human MC4R radioligand binding assay ([125I] NDP-MSH)). Settings: Table 6, hMCR binding selectivity.
Description: as §1, §2

Row | IC50 | Compound
3 | 3280 nM | N=C(N)NCCC[C@@H]1N[C@H](CNC(=O)c2ccc3ccccc3c2)CCN(CC(c2ccccc2)c2ccccc2)C1=O [Compound 105, N-(((3S,5S)-1-(2,2-diphenylethyl)-3-(3-guanidinopropyl)-2-oxo-1,4-diazepan-5-yl)methyl)-2-naphthamide]
4 | 6060 nM | O=C(/C=C/c1ccc(Cl)cc1)NC[C@@H]1CCN(CC(c2ccccc2)c2ccccc2)C(=O)[C@H](CCN2CCCCC2)N1 [Compound 33, (E)-3-(4-chlorophenyl)-N-(((3S,5S)-1-(2,2-diphenylethyl)-2-oxo-3-(2-(piperidin-1-yl)ethyl)-1,4-diazepan-5-yl)methyl)acrylamide]

What follows are compounds tested against human MC3R (assay: Human MC3R radioligand binding assay ([125I] NDP-MSH)). Settings: Table 6, hMCR binding selectivity.
Description: as §1, §2

Row | IC50 | Compound
5 | 1830 nM | CCC(CC)CN1CC[C@@H](CNC(=O)/C=C/c2ccc(Cl)cc2)N[C@@H](CCN2CCCCC2)C1=O [Compound 348, (E)-3-(4-chlorophenyl)-N-(((3S,5S)-1-(2-ethylbutyl)-2-oxo-3-(2-(piperidin-1-yl)ethyl)-1,4-diazepan-5-yl)methyl)acrylamide]
6 | 1500 nM | O=C(/C=C/c1ccc(Cl)cc1)NC[C@@H]1CCN(CC(c2ccccc2)c2ccccc2)C(=O)[C@H](CCN2CCCCC2)N1 [Compound 33, (E)-3-(4-chlorophenyl)-N-(((3S,5S)-1-(2,2-diphenylethyl)-2-oxo-3-(2-(piperidin-1-yl)ethyl)-1,4-diazepan-5-yl)methyl)acrylamide]

These compounds were tested against T1, human MC5R (Homo sapiens, UniProt P33032) (assay: Human MC5R radioligand binding assay ([125I] NDP-MSH displacement, hMC5R membranes)). Settings: hMC5R assay as in Example 102; compounds tested as trifluoroacetate or hydrochloride salts, or as free base.
T1 construct: purchased Perkin Elmer RBXMC5M400UA
Summary of the method: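 Bound ligand collected by filtration on PEI-soaked GF/A filters and counted. Data fitted to a single-site competition model with fixed Hill coefficient to give EC50.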

T1 sequence (P33032 whole entry): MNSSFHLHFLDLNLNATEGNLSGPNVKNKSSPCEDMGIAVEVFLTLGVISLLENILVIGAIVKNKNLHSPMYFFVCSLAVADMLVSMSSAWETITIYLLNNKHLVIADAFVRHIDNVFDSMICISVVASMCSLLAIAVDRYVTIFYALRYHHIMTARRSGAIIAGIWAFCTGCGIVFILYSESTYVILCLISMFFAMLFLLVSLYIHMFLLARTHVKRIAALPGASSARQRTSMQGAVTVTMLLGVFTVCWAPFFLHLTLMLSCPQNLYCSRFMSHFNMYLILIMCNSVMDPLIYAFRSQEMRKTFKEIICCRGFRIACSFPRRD

Row | Compound | IC50
7 | N=C(N)NCCC[C@@H]1N[C@H](CNC(=O)c2ccc3c(c2)OCO3)CCN(CC(c2ccccc2)c2ccccc2)C1=O [Compound 148, N-(((3S,5S)-1-(2,2-diphenylethyl)-3-(3-guanidinopropyl)-2-oxo-1,4-diazepan-5-yl)methyl)benzo[d][1,3]dioxole-5-carboxamide] | < 1000 nM
8 | O=C(NCC[C@@H]1CCN(CC(c2ccccc2)c2ccccc2)C(=O)[C@H](CCN2CCCCC2)N1)c1ccc(Cl)c(Cl)c1 [Compound 312, 3,4-dichloro-N-(2-((3S,5R)-1-(2,2-diphenylethyl)-2-oxo-3-(2-(piperidin-1-yl)ethyl)-1,4-diazepan-5-yl)ethyl)benzamide] | < 1000 nM
9 | O=C(/C=C/c1ccc(Cl)cc1)NC[C@@H]1CCN(CC(c2ccccc2)c2ccccc2)C(=O)[C@H](CCNC(=O)CC2CCCCC2)N1 [Compound 307, (E)-3-(4-chlorophenyl)-N-(((3S,5S)-3-(2-(2-cyclohexylacetamido)ethyl)-1-(2,2-diphenylethyl)-2-oxo-1,4-diazepan-5-yl)methyl)acrylamide] | < 1000 nM
10 | Cc1cccc(/C=C/C(=O)NC[C@@H]2CCN(CC(c3ccccc3)c3ccccc3)C(=O)[C@H](CCCNC(=N)N)N2)c1 [Compound 191, (E)-N-(((3S,5S)-1-(2,2-diphenylethyl)-3-(3-guanidinopropyl)-2-oxo-1,4-diazepan-5-yl)methyl)-3-m-tolylacrylamide] | < 100 nM
11 | N=C(N)NCCC[C@@H]1N[C@H](CNC(=O)c2ccc3ccccc3c2)CCN(CCc2ccccc2)C1=O [Compound 182, N-(((3S,5S)-3-(3-guanidinopropyl)-2-oxo-1-phenethyl-1,4-diazepan-5-yl)methyl)-2-naphthamide] | < 1000 nM
12 | N=C(N)NCCC[C@@H]1N[C@H](CNC(=O)c2ccccc2)CCN(CC(c2ccccc2)c2ccccc2)C1=O [Compound 115, N-(((3S,5S)-1-(2,2-diphenylethyl)-3-(3-guanidinopropyl)-2-oxo-1,4-diazepan-5-yl)methyl)benzamide] | < 1000 nM
13 | O=C(NC[C@@H]1CCN(Cc2cc(Cl)cc(Cl)c2)C(=O)[C@H](CCN2CCCCC2)N1)c1ccc(Cl)c(Cl)c1 [Compound 343, 3,4-dichloro-N-(((3S,5S)-1-(3,5-dichlorobenzyl)-2-oxo-3-(2-(piperidin-1-yl)ethyl)-1,4-diazepan-5-yl)methyl)benzamide] | < 100 nM
14 | O=C(NC[C@@H]1CCN(CC(c2ccccc2)c2ccccc2)C(=O)[C@H](CCCNC2CCCCC2)N1)c1ccc2ccccc2c1 [Compound 226, N-(((3S,5S)-3-(3-(cyclohexylamino)propyl)-1-(2,2-diphenylethyl)-2-oxo-1,4-diazepan-5-yl)methyl)-2-naphthamide] | < 100 nM

Further lines, results first:

Row | IC50 | Compound
15 | < 100 nM | COc1ccc(/C=C/C(=O)NC[C@@H]2CCN(CC(c3ccccc3)c3ccccc3)C(=O)[C@H](CCCNC(=N)N)N2)cc1 [Compound 187, (E)-N-(((3S,5S)-1-(2,2-diphenylethyl)-3-(3-guanidinopropyl)-2-oxo-1,4-diazepan-5-yl)methyl)-3-(4-methoxyphenyl)acrylamide]
16 | < 10 nM | O=C(/C=C/c1ccc(Cl)cc1)NC[C@@H]1CCN(CC(c2ccccc2)c2ccccc2)C(=O)[C@H](CN2CCCCC2)N1 [Compound 279, (E)-3-(4-chlorophenyl)-N-(((3S,5S)-1-(2,2-diphenylethyl)-2-oxo-3-(piperidin-1-ylmethyl)-1,4-diazepan-5-yl)methyl)acrylamide]
17 | < 1000 nM | O=C(NC[C@@H]1CCN(Cc2cc(Cl)cc(Cl)c2)C(=O)[C@H](CN2CCCC2)N1)c1ccc(Cl)c(Cl)c1 [Compound 371, 3,4-dichloro-N-(((3S,5S)-1-(3,5-dichlorobenzyl)-2-oxo-3-(pyrrolidin-1-ylmethyl)-1,4-diazepan-5-yl)methyl)benzamide]
18 | < 100 nM | N=C(N)NCCC[C@@H]1N[C@H](CNC(=O)c2cnc3ccccc3c2)CCN(CC(c2ccccc2)c2ccccc2)C1=O [Compound 112, N-(((3S,5S)-1-(2,2-diphenylethyl)-3-(3-guanidinopropyl)-2-oxo-1,4-diazepan-5-yl)methyl)quinoline-3-carboxamide]
19 | < 10000 nM | N=C(N)NCCC[C@@H]1N[C@H](CNC(=O)C2Cc3ccccc3C2)CCN(CC(c2ccccc2)c2ccccc2)C1=O [Compound 133, N-(((3S,5S)-1-(2,2-diphenylethyl)-3-(3-guanidinopropyl)-2-oxo-1,4-diazepan-5-yl)methyl)-2,3-dihydro-1H-indene-2-carboxamide]

Source: patent EP2257297B1, “COMPOUNDS FOR USE IN THE TREATMENT OF ACNE, SEBORRHOEA AND SEBHORROEIC DERMATITIS, OR FOR REDUCING SEBUM SECRETION” (priority 2008, dated 2009)
